Experimental data published in patent US12668591B2, “1,2,4-oxadiazole derivatives as histone deacetylase 6 inhibitors” (Oryzon Genomics, S.A., priority 2017, dated 2026).

Biological target: T1, HDAC6 (Homo sapiens, UniProt Q9UBN7)
T1 sequence (Q9UBN7 1-1215): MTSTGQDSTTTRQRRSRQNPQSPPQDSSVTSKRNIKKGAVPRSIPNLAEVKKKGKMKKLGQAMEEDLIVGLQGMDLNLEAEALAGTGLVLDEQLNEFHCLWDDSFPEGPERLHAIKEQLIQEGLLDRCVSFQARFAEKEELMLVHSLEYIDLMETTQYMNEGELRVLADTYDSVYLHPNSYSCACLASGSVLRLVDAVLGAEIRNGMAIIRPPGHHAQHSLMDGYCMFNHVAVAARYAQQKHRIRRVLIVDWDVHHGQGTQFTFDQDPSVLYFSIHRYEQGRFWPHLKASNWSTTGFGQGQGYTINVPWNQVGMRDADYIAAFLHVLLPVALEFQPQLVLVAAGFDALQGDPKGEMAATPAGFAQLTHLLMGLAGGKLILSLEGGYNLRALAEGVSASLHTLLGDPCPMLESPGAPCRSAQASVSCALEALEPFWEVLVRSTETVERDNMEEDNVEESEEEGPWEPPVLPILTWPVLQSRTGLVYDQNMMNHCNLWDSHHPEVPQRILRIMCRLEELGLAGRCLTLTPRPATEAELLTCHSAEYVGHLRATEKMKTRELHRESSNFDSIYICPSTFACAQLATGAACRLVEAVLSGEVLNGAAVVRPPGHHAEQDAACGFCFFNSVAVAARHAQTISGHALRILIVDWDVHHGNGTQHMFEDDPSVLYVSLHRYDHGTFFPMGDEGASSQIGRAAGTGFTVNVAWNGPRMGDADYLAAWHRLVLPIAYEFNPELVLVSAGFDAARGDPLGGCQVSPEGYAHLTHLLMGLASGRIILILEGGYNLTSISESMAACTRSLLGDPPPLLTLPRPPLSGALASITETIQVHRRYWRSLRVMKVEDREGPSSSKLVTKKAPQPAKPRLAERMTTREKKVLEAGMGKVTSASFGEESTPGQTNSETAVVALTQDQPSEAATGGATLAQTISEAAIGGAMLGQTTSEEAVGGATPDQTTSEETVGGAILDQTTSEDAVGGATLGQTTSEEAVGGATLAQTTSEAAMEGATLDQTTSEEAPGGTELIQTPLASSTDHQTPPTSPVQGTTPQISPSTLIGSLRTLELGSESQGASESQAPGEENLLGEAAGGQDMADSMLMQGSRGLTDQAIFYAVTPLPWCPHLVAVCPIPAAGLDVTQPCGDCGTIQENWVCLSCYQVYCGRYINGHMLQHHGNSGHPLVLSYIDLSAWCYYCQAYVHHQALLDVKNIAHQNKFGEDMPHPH
Experiment: In vitro cell-based assay: acetylation levels of Alpha-Tubulin by Western Blot in MOLP8 cells
Parameters: endogenous in cells; host or cells: MOLP8
Conditions: 18 h, acetyl-alpha-tubulin relative band intensity, ACY-1215 1 μM = 100%
Procedure: In Vitro Cell-Based Assay
In order to determine the cellular activity of HDAC6 upon treatment with HDAC6 inhibitors, acetylation levels of Alpha-Tubulin (a HDAC6-specific substrate) were measured by Western Blot. For this, MOLP8 cells were seeded in 6-well plates at a cell density of 500.000 cells/well and treated with the selected compounds at 5 and 1 μM for 18 h at 37° C. and 5% CO2 in a humidified tissue culture incubator. Consecutively, cell pellets were collected and whole protein extracts prepared using RIPA buffer (SIGMA) supplemented with 1× protease inhibitors (cOmplete mini, Roche). Protein concentration was determined with Bradford's reagent (Bio-Rad) as per manufacturer's instructions, and 7 μg of total protein were loaded into pre-cast 10% NuPAGE Novex gels (Life Technologies). Gels were run in […] (Life Technologies) and proteins were transferred using the iBlot 2 Dry Blotting System (Life Technologies). Blots were subsequently rinsed in distilled water and stained with Ponceau S solution (SIGMA). Blots were then washed in distilled water to remove Ponceau excess and scanned with the Epson Perfection V600 Photo professional Scanner. After this, blots were de-stained and blocked in 5% milk/PBS-Tween 0.1% for 1 h at room temperature followed by incubation with anti-Acetyl-alpha Tubulin (SIGMA cat. #T7451, 1:10.000 dilution) and anti-Beta-actin (SIGMA, cat. #A5316, 1:2.000 dilution) primary antibodies in 5% milk/PBS-T 0.1%, overnight at 4° C. on a shaking platform. After incubation, blots were washed 3 times for 5 minutes each in PBS-Tween 0.5% and incubated with anti-mouse HRP-conjugated secondary antibody (Jackson Immuno Research, cat. #115-035-068) at 1:8.000 in 5% milk/PBS-Tween 0.1%, 1 h at room temperature on a shaking platform. After 3 washes of 5 minutes each with PBS-Tween 0.5% and 1 wash in PBS 1×, blots were developed with ECL Plus (GE Healthcare) and the chemiluminescent reaction imaged with the G:Box Chemi XRQ (Syngene) imaging system. WB and Ponceau images were analysed with ImageJ software, WB band intensities normalized by either total protein or Beta-actin content and made relative to ACY-1215 1 μM (equivalent to 100%). ACY-1215 is a HDAC6 inhibitor, and is also known as ricolinostat, with chemical name 2-(diphenylamino)-N-[7-(hydroxyamino)-7-oxoheptyl]-5-pyrimidinecarboxamide. Percentage of band intensities was classified as follows: […]

Row | Cellular activity @1 uM | Cellular activity @5 uM | Structure (SMILES)
1 | + (50-150) | ++ (150-300) | FC(F)(F)CN1CCC(n2ccc3cnc(-c4cc(-c5noc(C(F)(F)F)n5)ccn4)cc32)CC1 [Example 1ao, 3-(2-(1-(1-(2,2,2-Trifluoroethyl)piperidin-4-yl)-1H-pyrrolo[3,2-c]pyridin-6-yl)pyridin-4-yl)-5-(trifluoromethyl)-1,2,4-oxadiazole]
2 | + (50-150) | + (50-150) | COCCn1c(C(=O)N(C)C)cc2cc(-c3cc(-c4noc(C(F)(F)F)n4)ccn3)ncc21 [Example 1ar, 1-(2-Methoxyethyl)-N,N-dimethyl-5-(4-(5-(trifluoromethyl)-1,2,4-oxadiazol-3-yi)pyridin-2-yl)-1H-pyrrolo[2,3-c]pyridine-2-carboxamide]
3 | + (50-150) | + (50-150) | COCCn1cc(-c2cn[nH]c2)c2cc(-c3cc(-c4noc(C(F)(F)F)n4)ccn3)ncc21 [Example 1as, 3-(2-(1-(2-Methoxyethyl)-3-(1H-pyrazol-4-yl)-1H-pyrrolo[2,3-c]pyridin-5-yl)pyridin-4-yl)-5-(trifluoromethyl)-1,2,4-oxadiazole]
4 | − (<50) | + (50-150) | Cn1ccc2cc(-c3cc(-c4noc(C(F)(F)F)n4)ccn3)ncc21 [Example 1at, 3-(2-(1-Methyl-1H-pyrrolo[2,3-c]pyridin-5-yl)pyridin-4-yl)-5-(trifluoromethyl)-1,2,4-oxadiazole]
5 | + (50-150) | ++ (150-300) | FC(F)(F)c1nc(-c2ccnc(-c3cc4c(ccn4Cc4cccnc4)cn3)c2)no1 [Example 1av, 3-(2-(1-(Pyridin-3-ylmethyl)-1H-pyrrolo[3,2-c]pyridin-6-yl)pyridin-4-yl)-5-(trifluoromethyl)-1,2,4-oxadiazole]
6 | + (50-150) | + (50-150) | CN(CCO)CCCOc1ccc(-c2cc(-c3noc(C(F)(F)F)n3)ccn2)nc1 [Example 1ax, 2-(Methyl(3-((4′-(5-(trifluoromethyl)-1,2,4-oxadiazol-3-yl)-[2,2′-bipyridin]-5-yl)oxy)propyl)amino)ethan-1-ol]
7 | − (<50) | + (50-150) | COCCn1ncc2cc(-c3cc(-c4noc(C(F)(F)F)n4)ccn3)ncc21 [Example 1ay, 3-(2-(1-(2-Methoxyethyl)-1H-pyrazolo[3,4-c]pyridin-5-yl)pyridin-4-yl)-5-(trifluoromethyl)-1,2,4-oxadiazole]
8 | − (<50) | + (50-150) | CCCCN(C(=O)CCOC)c1ccc(-c2cc(-c3noc(C(F)(F)F)n3)ccn2)nc1 [Example 1i, N-Butyl-3-methoxy-N-(4′-(5-(trifluoromethyl)-1,2,4-oxadiazol-3-yl)-[2,2′-bipyridin]-5-yl)propanamide]
9 | − (<50) | + (50-150) | CN(CCCN1CCC(F)(F)CC1)c1ccc(-c2cc(-c3noc(C(F)(F)F)n3)ccn2)nc1 [Example 1l, N-(3-(4,4-Difluoropiperidin-1-yl)propyl)-N-methyl-4′-(5-(trifluoromethyl)-1,2,4-oxadiazol-3-yl)-[2,2′-bipyridin]-5-amine]
10 | − (<50) | + (50-150) | CCN(CC)CCCN(C)c1ccc(-c2cc(-c3noc(C(F)(F)F)n3)ccn2)nc1 [Example 1n, N^1,N^1-Diethyl-N^3-methyl-N^3-(4′-(5-(trifluoromethyl)-1,2,4-oxadiazol-3-yl)-2,2′-bipyridin-5-yl)propane-1,3-diamine]
11 | − (<50) | ++ (150-300) | CCN(CCCOc1ccc(-c2cc(-c3noc(C(F)(F)F)n3)ccn2)nc1)CCc1ccccc1 [Example 1p, N-Ethyl-N-phenethyl-3-((4′-(5-(trifluoromethyl)-1,2,4-oxadiazol-3-yl)-[2,2′-bipyridin]-5-yl)oxy)propan-1-amine]
12 | − (<50) | + (50-150) | FC1(F)CCN(CCOc2ccnc(-c3cc(-c4noc(C(F)(F)F)n4)ccn3)c2)CC1 [Example 1s, 3-(4′-(2-(4,4-Difluoropiperidin-1-yl)ethoxy)-[2,2′-bipyridin]-4-yl)-5-(trifluoromethyl)-1,2,4-oxadiazole]
13 | − (<50) | + (50-150) | CNCCCOc1ccc(-c2cc(-c3noc(C(F)(F)F)n3)ccn2)nc1 [Example 2, N-Methyl-3-((4′-(5-(trifluoromethyl)-1,2,4-oxadiazol-3-yl)-[2,2′-bipyridin]-5-yl)oxy)propan-1-amine]
14 | + (50-150) | + (50-150) | FC(F)(F)c1nc(-c2ccnc(-n3ncc4cccnc43)c2)no1 [Example 6, 3-(2-(1H-Pyrazolo[3,4-b]pyridin-1-yl)pyridin-4-yl)-5-(trifluoromethyl)-1,2,4-oxadiazole]
15 | − (<50) | + (50-150) | CN(C)CCCOc1ccc(-c2cc(-c3noc(C(F)(F)F)n3)ccn2)nc1 [Example 7, N,N-Dimethyl-3-((4′-(5-(trifluoromethyl)-1,2,4-oxadiazol-3-yl)-[2,2′-bipyridin]-5-yl)oxy)propan-1-amine]
16 | + (50-150) | ++ (150-300) | Cn1nc(-c2cc(-c3noc(C(F)(F)F)n3)ccn2)c2ncccc21 [Example 7a, 3-(2-(1-Methyl-1H-pyrazolo[4,3-b]pyridin-3-yl)pyridin-4-yl)-5-(trifluoromethyl)-1,2,4-oxadiazole]
